We go through 22 molecules from patent US20230103444A1 (The Regents of the University of Colorado, a Body Corporate, priority 2020, published 2023).

For series [1], the target named is T1, cat-CHD1L ATPase (Homo sapiens, UniProt Q86WJ1).
T1 construct: inferred from Ni-NTA / imidazole purification; made in house; host or cells: E. coli Rosetta 2 (DE3) pLysS; constructs were a gift from Helena Berglund, Karolinska Institute
T1 sequence (Q86WJ1 16-611 limits assumed): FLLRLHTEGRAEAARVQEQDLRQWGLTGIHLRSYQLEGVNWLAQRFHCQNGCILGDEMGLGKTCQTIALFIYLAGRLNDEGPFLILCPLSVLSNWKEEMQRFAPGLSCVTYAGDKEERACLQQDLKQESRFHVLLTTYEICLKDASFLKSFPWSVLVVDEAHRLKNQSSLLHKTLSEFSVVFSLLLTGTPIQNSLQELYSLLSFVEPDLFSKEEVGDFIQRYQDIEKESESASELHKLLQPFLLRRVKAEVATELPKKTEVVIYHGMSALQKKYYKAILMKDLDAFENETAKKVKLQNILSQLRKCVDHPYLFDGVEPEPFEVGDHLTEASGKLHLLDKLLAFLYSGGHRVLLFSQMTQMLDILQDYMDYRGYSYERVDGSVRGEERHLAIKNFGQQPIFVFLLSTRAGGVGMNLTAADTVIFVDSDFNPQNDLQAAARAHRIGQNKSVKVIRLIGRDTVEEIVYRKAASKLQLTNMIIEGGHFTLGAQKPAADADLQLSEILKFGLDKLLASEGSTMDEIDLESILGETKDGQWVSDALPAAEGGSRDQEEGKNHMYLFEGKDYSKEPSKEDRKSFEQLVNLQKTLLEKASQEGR
Kind of series: CHD1L ATPase assay with recombinant catalytic domain (cat-CHD1L). In kind it is biochemical. The note with it: for inhibition at 20 µM: confirmed HTS hits, HTS at 20 μM, read-out: inhibition against cat-CHD1L ATPase. On the procedure: All reactions were carried out using low volume non-binding surface 384-well plates (Corning Inc., Corning N.Y.). cat-CHD1L or fl-CHD1L (100 nM) and 200 nM c-Myc DNA or mononucelosome (Active Motif, Carlsbad, Calif.) were added to a buffer containing 50 mM Tris pH 7.5, 50 mM NaCl, 1 mM DTT, 5% glycerol, and the reaction was initiated by the addition of 10 μM ATP (New England Biolabs, Ipswich, Mass.) to a total volume of 10 μL and incubated at 37° C. for 1 h. ATPase activity was assayed by adding 500 nM of Phosphate Sensor (Life Technologies, Carlsbad, Calif.), containing labeled phosphate-binding protein, specifically labeled with the fluorophore MDCC, and measuring excitation (430 nm) and emission (450 nm) immediately on an EnVision® plate reader (PerkinElmer, Hopkinton, Mass.). An inorganic phosphate standard curve was used to convert the fluorescence to [Pi], and enzyme kinetics were determined using Prism8 (GraphPad Software, San Diego, Calif.).
Assay composition was the same as described above using cat-CHD1L, except that the reaction mixture volume was modified to accommodate addition of drug or DMSO. Using a Janus® liquid handler (PerkinElmer, Hopkinton, Mass.), a selected amount of compounds dissolved in 100% DMSO were mixed with 50 mM Tris pH 7.5, 50 mM NaCl, 1 mM DTT, 5% glycerol buffer to 200 μM in 10% DMSO. […] The negative control used was 1% DMSO and 10 mM EDTA was used as a positive control. Reactions were initiated with the addition of 10 μM ATP and incubated at 37° C. for 1 h. ATPase activity was measured by fluorescence by adding 500 nM Phosphate Sensor. cat-CHD1L was screened against a 20,000-compound diversity set from Life Chemicals (Woodbridge, Conn.) and a Kinase Inhibitor library from Selleck Chemicals (Houston, Tex.).
CHD1L Enzyme ATPase Assay. […] All reactions were carried out using low volume nonbinding surface 384-well plates (Corning Inc., Corning, N.Y.). […] The reaction was initiated by the addition of 10 μmol/L ATP (New England Biolabs, Ipswich, Mass.) to a total volume of 10 μL and incubated at 37° C. for 1 hour. ATPase activity was measured by adding 500 nmol/L of Phosphate Sensor (ThermoFisher, Waltham, Mass.) measuring excitation (430 nm) and emission (450 nm) immediately on an Envision plate reader (PerkinElmer, Waltham, Mass.). Background signal was determined by using all assay components excluding the enzyme.

Series [2] deals with SW620 tumor organoids. Kind of series: Tumor organoid cytotoxicity (CellTiter-Glo 3D). Background: Cellular ATP, detected with luciferase, serves as a proxy for viable cell number.
The test system of series [3] is HCT116 tumor organoids. Put plainly: Tumor organoid cytotoxicity (CellTiter-Glo 3D). The class given is cell-based, human. The note with it: Homo sapiens. On the procedure: Cell based cytotoxicity dose response and combination studies. […] Plates were then incubated for 3 days before treatment.
Cell Line Tumor Organoid Culture.
Tumor Organoid Cytotoxicity.

[4] abbreviates: units given with the values (nM, μM), read-out: activity in dose response studies against cat-CHD1L ATPase (IC50, FIG. 1A).
Where [5] appears, read: Homo sapiens, SW-620, 72 h, read-out: 3 D Cytotoxicity 72 hr IC50 (μM) SW620.
The mark [6] stands for this setting: Homo sapiens, SW-620, read-out: Tumor Organoid Cytotoxicity IC50 (μM) SW620.
Setting [7] is: HCT-116, 72 h, Table 6, read-out: 3 D Cytotoxicity 72 hr IC50 (μM) HCT116.
[8] abbreviates: HCT-116, single agent, Table 4A, read-out: Tumor Organoid Cytotoxicity IC50 (μM) HCT116.
Setting [9] is: Table 6, read-out: cat-CHD1L inhibition IC50.

Read-outs that look alike come from different tables or passages of the source.

For `O=S(=O)(NCCN1CCOCC1)c1ccc(C2CCCCC2)cc1` [Compound 1], the inhibition at 20 µM in series [1] is above 50%. In addition, the IC50 in series [1] (setting [4]) lay in the range of 900 to 5000 nM.
With `Cc1ccc(-c2ccc(S(=O)(=O)NCCN3CCOCC3)cc2)cc1C` [Compound 2], the inhibition at 20 µM in series [1] was above 50%. Moreover, the concentration for half-maximal inhibition (IC50) in series [1] (setting [4]) lay in the range of 900 to 5000 nM.
In the case of `COc1cc(C)c(C(C)C)cc1S(=O)(=O)NCCN1CCOCC1` [Compound 3], the inhibition at 20 µM in series [1] is above 50%. For the same molecule, the IC50 in series [1] (setting [4]) was 900 to 5000 nM.
As for `Cc1cc(Nc2ccc(NC(=O)CCc3c[nH]c4ccccc34)cc2)nc(N2CCCC2)n1` [Compound 6.6, 3-(1H-indol-3-yl)-N-(4-((6-methyl-2-(pyrrolidin-1-yl)pyrimidin-4-yl)amino)phenyl) propanamide], the IC50 was above 40 µM in series [2] (setting [5]), above 40 µM in series [2] (setting [6]), above 40 µM in series [3] (setting [7]) and above 30 µM in series [3] (setting [8]).
With `Cc1cc(Nc2ccc(NC(=O)CCCc3c[nH]c4ccccc34)cc2)nc(N2CCCC2)n1` [Compound 6.7, 4-(1H-indol-3-yl)-N-(4-((6-methyl-2-(pyrrolidin-1-yl)pyrimidin-4-yl)amino)phenyl)butanamide], the half-maximal inhibitory concentration (IC50) in series [2] (setting [5]) amounted to 13 µM; in series [2] (setting [6]), 12.7 µM; in series [3] (setting [7]), 17.6 µM; in series [3] (setting [8]), 17.6 µM.
For `Cc1cc(Nc2ccc(NC(=O)/C=C/c3c[nH]c4ccccc34)cc2)nc(N2CCCC2)n1` [Compound 6.8, (E)-3-(1H-indol-3-yl)-N-(4-((6-methyl-2-(pyrrolidin-1-yl)pyrimidin-4-yl)amino)phenyl)-acrylamide], the IC50 was found to be 4.3 µM in series [2] (setting [5]), 3.6 µM in series [2] (setting [6]), 6.8 µM in series [3] (setting [7]) and 6.85 µM in series [3] (setting [8]).
Regarding `Cc1cc(Nc2ccc(NC(=O)c3cn(C)c4ccccc34)cc2)nc(N2CCCC2)n1` [Compound 6.19, 1-methyl-N-(4-((6-methyl-2-(pyrrolidin-1-yl)pyrimidin-4-yl)amino)phenyl)-1H-indole-3-carboxamide], the half-inhibitory concentration (IC50) in series [2] (setting [5]) was 7.7 µM; in series [2] (setting [6]) it was 7.7 µM; in series [3] (setting [7]), above 40 µM; in series [3] (setting [8]), above 30 µM.
As for `Cc1cc(Nc2ccc(NC(=O)Cc3c[nH]c4ncccc34)cc2)nc(N2CCCC2)n1` [Compound 6.20, N-(4-((6-methyl-2-(pyrrolidin-1-yl)pyrimidin-4-yl)amino)phenyl)-2-(1H-pyrrolo[2,3-b]pyridin-3-yl)acetamide], the results for the IC50 in series [2] (setting [5]) and in series [2] (setting [6]) were 2.2 µM and 2.1 µM, respectively.
For the molecule `COc1ccc2[nH]cc(CC(=O)Nc3ccc(Nc4cc(C)nc(N5CCCC5)n4)cc3)c2c1` [Compound 6.22, 2-(5-methoxy-1H-indol-3-yl)-N-(4-((6-methyl-2-(pyrrolidin-1-yl)pyrimidin-4-yl)amino)phenyl) acetamide], the IC50 was 11.3 µM in series [2] (read-out: 3 D Cytotoxicity 72 hr IC50 (μM) SW620, Table 6) and 12.6 µM in series [2] (read-out: Tumor Organoid Cytotoxicity IC50 (μM) SW620, single agent, Table 4A, updated experimental, rounded to one decimal).
For `Cc1cc(Nc2ccc(NC(=O)Cc3c[nH]c4ccc(Br)cc34)cc2)nc(N2CCCC2)n1` [Compound 6.23, 2-(5-bromo-1H-indol-3-yl)-N-(4-((6-methyl-2-(pyrrolidin-1-yl)pyrimidin-4-yl)amino)phenyl) acetamide], the IC50 in series [2] (setting [6]) was determined as 5.7 µM.
In the case of `Cc1cc(Nc2ccc(NC(=O)Cn3ccc4ccccc43)cc2)nc(N2CCCC2)n1` [Compound 6.24, 2-(1H-indol-1-yl)-N-(4-((6-methyl-2-(pyrrolidin-1-yl)pyrimidin-4-yl)amino)phenyl)acetamide], the figures for the IC50 in series [2] (setting [5]) and in series [2] (setting [6]) were 3 µM and 2.7 µM, respectively.
Turning to `Cc1cc(Nc2ccc(NC(=O)Cc3c[nH]c4ccc(O)cc34)cc2)nc(N2CCCC2)n1` [Compound 6.25, 2-(5-hydroxy-1H-indol-3-yl)-N-(4-((6-methyl-2-(pyrrolidin-1-yl)pyrimidin-4-yl)amino)phenyl) acetamide], the IC50 in series [2] (setting [5]) turned out to be 17.6 µM; in series [2] (setting [6]), 19.7 µM.
Consider `Cc1cc(Nc2ccc(NC(=O)Cn3cc(CC4CC4)c4ccccc43)cc2)nc(N2CCCC2)n1` [Compound 6.26, 2-(3-(cyclopropylmethyl)-1H-indol-1-yl)-N-(4-((6-methyl-2-(pyrrolidin-1-yl)pyrimidin-4-yl)amino)phenyl)acetamide], for which the figures for the IC50 in series [2] (setting [5]) and in series [2] (setting [6]) were 4.7 µM and 5.5 µM, respectively.
Take `CCc1ccc2[nH]cc(CC(=O)Nc3ccc(Nc4cc(C)nc(N5CCCC5)n4)cc3)c2c1` [Compound 6.27, 2-(5-ethyl-1H-indol-3-yl)-N-(4-((6-methyl-2-(pyrrolidin-1-yl)pyrimidin-4-yl)amino)phenyl) acetamide]: the IC50 in series [2] (setting [5]) was found to be 3 µM; in series [2] (setting [6]), 2.1 µM.
On to `Cc1cc(Nc2ccc(NC(=O)Cc3cn(S(=O)(=O)c4ccc(C(F)(F)F)cc4)c4ccccc34)cc2)nc(N2CCCC2)n1` [Compound 6.29, N-(4-((6-methyl-2-(pyrrolidin-1-yl)pyrimidin-4-yl)amino)phenyl)-2-(1-((4-(trifluoromethyl)phenyl)sulfonyl)-1H-indol-3-yl)acetamide], for which the IC50 in series [2] (setting [5]) was 5.4 µM; in series [2] (setting [6]), 5.1 µM.
On to `Cc1cc(Nc2ccc(NC(=O)CC3C(=O)Nc4ccccc43)cc2)nc(N2CCCC2)n1` (stereo not drawn) [Compound 6.30, N-(4-((6-methyl-2-(pyrrolidin-1-yl)pyrimidin-4-yl)amino)phenyl)-2-(2-oxoindolin-3-yl) acetamide], for which the half-inhibitory concentration (IC50) came to 6.1 µM in series [2] (setting [5]) and 6 µM in series [2] (setting [6]).
For `COC(=O)C1CCCN1c1nc(C)cc(Nc2ccc(NC(=O)Cc3cccs3)cc2)n1` (stereo not drawn) [Compound 6.34], the values for the concentration for half-maximal inhibition (IC50) in series [2] (setting [5]) and in series [1] (setting [9]) were above 20 µM and 3000 nM, respectively.
Regarding `COC(=O)C1CCCN1c1nc(C)cc(Nc2ccc(NC(=O)Cc3cc(Br)cs3)cc2)n1` (stereo not drawn) [Compound 6.35], the IC50 is 8.6 µM in series [2] (setting [5]); below 10 µM in series [2] (Homo sapiens, SW-620, read-out: IC50 of cytotoxicity in SW620 cells); 1800 nM in series [1] (setting [9]). The “CHD1L enzyme inhibition, in words” value in series [1] (recombinant cat-CHD1L) is given as “good enzyme inhibition”.
In the case of `Cc1cc(Nc2ccc(NC(=O)Cc3cc(Br)cs3)cc2)nc(N2CCCC2C(=O)O)n1` (stereo not drawn) [Compound 6.36], the 50% inhibitory concentration (IC50) in series [2] (setting [5]) is above 20 µM; in series [1] (setting [9]), above 20000 nM.
For `Cc1cc(Nc2ccc(NC(=O)Cc3cc(Br)cs3)cc2)nc(N2CCNCC2)n1` [Compound 6.40], the results for the IC50 in series [2] (setting [5]), in series [1] (setting [9]) and in series [3] (setting [7]) were 10.5 µM, 11400 nM and 4.8 µM, respectively.
Turning to `Cc1cc(Nc2ccc(NC(=O)Cc3ccccn3)cc2)nc(N2CCCC2)n1` [Compound 6.42], the IC50 in series [1] (setting [9]) was 17700 nM; in series [3] (setting [7]), 20.9 µM.
As to `Cc1cc(Nc2ccc(NC(=O)Cc3cccnc3)cc2)nc(N2CCCC2)n1` [Compound 6.43], the figures for the 50% inhibitory concentration (IC50) in series [1] (setting [9]) and in series [3] (setting [7]) were 10300 nM and 19.1 µM, respectively.

Usually inhibition stands for the relative decrease from the control value, in per cent. By IC50 is commonly meant the concentration needed to halve the response being measured.
